The subject of assay [1] is PDE3.
Procedure: Briefly, mice were euthanized by cervical dislocation, the heart rapidly excised and retrogradely perfused at 37° C. for 6-8 min with a modified tyrode solution (in mM: NaCl113, KCL 4.7, KH2PO4 0.6, Na2HPO4 0.6, MgSO4 1.2, NaHCO3 12, KHCO3 10, HEPES10 Taurine 30, pH=7.4) containing 1 mg.ml-1 of liberase (Roche, France). Isolated myocytes were then transferred to the same solution, free of enzyme, containing 1 mM CaCl2.
In addition, we have measured the effect of PDE3 inhibition by cilostamide on the contractility of ventricular myocytes isolated from WT and MRP4 KO mice.
The test system of assay [2] is PDE3. This is another data set of the same source.
Procedure: Cardiac ventricular myocytes were enzymatically dissociated using standard procedures (Fauconnier, J. et al. Diabetes, 2007). Briefly, mice were euthanized by cervical dislocation, the heart rapidly excised and retrogradely perfused at 37° C. for 6-8 min with a modified tyrode solution (in mM: NaCl113, KCL 4.7, KH2PO4 0.6, Na2HPO4 0.6, MgSO4 1.2, NaHCO3 12, KHCO3 10, HEPES10 Taurine 30, pH=7.4) containing 1 mg.ml-1 of liberase (Roche, France). Isolated myocytes were then transferred to the same solution, free of enzyme, containing 1 mM CaCl2.
Cells were loaded for 30 min at RT with Fluo-4 AM (5 μmol/l, Molecular Probes). Cells were then field-stimulated at 1 Hz with a 1-2 ms current pulse delivered via two platinum electrodes, one on each side of the perfusion chamber. Changes in Fluo-4 fluorescence were recorded using an LSM510 Meta Zeiss confocal microscope equipped with a 63× water immersion objective (NA: 1.2). Measurements were performed in line-scan mode (1.5 ms/line) and scanning was carried out along the long axis of the cell. An excitation wavelength of 488 nm was used, and emitted light was collected through a 505 nm long pass filter. The laser intensity used (3-6% of the maximum) had no noticeable deleterious effect on the fluorescence signal or on cell function over the time-course of the experiment. To enable comparisons between cells, the change in fluorescence (ΔF) was divided by the fluorescence detected immediately before the 0.5 Hz stimulation pulse (F0).
Assay [3] relates to PDE3. Briefly: Chronotropic effect of PDE3 inhibitor, telemetric ECG (RR interval) in WT and MRP4 KO mice. To be noted: for heart rate: wild-type mice. Type of assay: in vivo. On the procedure:
(§1) Animal models. MRP4 ablated mice (MRP4 KO) were generated and genotyped as described (Leggas, M. et al. Mol Cell Biol 24, 7612-21 (2004). Wild-type and homozygous MRP4-KO mice (8-10 weeks of age) were subjected to left ventricular pressure overload by transverse aortic constriction (TAC), as previously described (Rockman, et al. Proc Natl Acad Sci USA 88, 8277-81 (1991). Five weeks after the procedure, the animals were sacrified and heart and body weights were determined. As a model of β-adenergic overstimulation miniosmotic pumps (Alzet) containing (−)-isoproterenol-bitartrate (Sigma Aldrich) (delivering 20 μg/g/day each) were implanted subcutaneously into 10-12 weeks old animals. Determination of heart weights and analysis of gene expression were carried out after 14 days of continuous infusion. Finally, male MRP4 KO mice and WT littermate were subjected to voluntary exercise. The animals were 10-12 weeks at the start of the study. Individual animals were housed in a cage with free access to a 11.5-cm-diameter running wheel with a 5.0-cm-wide running surface equipped with a digital magnetic counter (model BC 1200, Sigma Sport) that is activated by wheel rotation. Daily exercise values for time and distance run were recorded for each exercised animal throughout the duration of the exercise period.
Telemetry studies. Long-term telemetric ambulatory ECG measurements were performed in wild type and knock out male mice at 3 months of age. Six-lead restrained ECG monitoring of conscious animals (hamsters and mice) were performed with EasyCG® tools system (EMKA technologies, France) formed by the four sensors of ecgTUNNEL® system platform and a translucent animal sizefitting half-tunnel. Each animal was put inside the tunnel, which was then closed, assuring the animal to be properly restrained. The four wires of the platform were connected to a wireless transmitter and amplifier system (emkaPACK®, EMKA technologies). Telemetric ECG tracing were obtained in conscious mice during quiet awake time at daytime. To minimize the effects of stress, animals were allowed to stay in the restraining system for 5 min before starting ECG recordings. […] Six leads of ECG were recorded during 15 to 20 min using specific software (iox®, EMKA technologies): three leads were measured (L1, L2, L3), and three were calculated (aVR, aVL, aVF). Dedicated software (Ecg-auto®, EMKA technologies) was used to measure RR interval, SDNN and HRV index. If needed, raw data were submitted to a 50-Hz notch filter with an automatic setting determined by the software.

For another assay, the system named is β-adrenergic system. Put plainly: Chronic β-adrenergic stimulation, isoproterenol-induced cardiac hypertrophy. Type of assay: in vivo. To be noted: 20 μg/g/day for 2 weeks by miniosmotic pumps, 3 month-old MRP4 KO vs WT mice. On the procedure: as §1, with “period. […]” for “period.”

Like-named read-outs stand apart in the source and are kept apart here.

With `CN(C(=O)CCCOc1ccc2[nH]c(=O)ccc2c1)C1CCCCC1` [Cilostamide], the “contractility increase, MRP4 KO vs WT” value in the assay on PDE3 [1] (MRP4 KO compared to WT) is on record as “significantly more”. In the assay on PDE3 [1] (MRP4 KO mice myocytes), the “contractility of ventricular myocytes” value is given as “increased”. Moreover, in the assay on PDE3 [1] (WT mice myocytes), the “contractility of ventricular myocytes” value is “increased”. In the assay with PDE3 [2] (MRP4 KO mice myocytes), the “Ca2+ transient amplitude (ΔF/F0)” value is given as “increased”, the “Ca2+ transient half width” value is “decreased”, the “Ca2+ transient rate of decay t” value was “decreased” and the “Ca2+ transient rate of rise (ΔF/F0.ms−1)” value is “decreased”. The “Ca2+ transient” value in the assay on PDE3 [2] (myocytes isolated from WT heart) was “no effect”.
Take `Cc1[nH]c(=O)c(C#N)cc1-c1ccncc1` [Milrinone]: in the assay on PDE3 [3] (0.1 mg/kg, MRP4 KO mice), the RR interval entry is on record as “significant decrease”. Further, the figures for the heart rate result in the assay on PDE3 [3] (0.1 mg/kg) and in the assay with PDE3 [3] (1 mg/kg) were “not changing heart rate” and “acceleration of heart rate”, respectively. Also, the “decrease in RR interval” value in the assay with PDE3 [3] (1 mg/kg, MRP4 KO mice compared to wild-type mice) is “significantly higher”. In the assay on PDE3 [3] (MRP4 KO mice compared to wild-type), the chronotropic dose-effect entry was “dramatically enhanced”.
For `CC(C)NC[C@H](O)c1ccc(O)c(O)c1` [Isoproterenol, (−)-isoproterenol-bitartrate], the “cardiac hypertrophy (HW/TL ratio)” value with β-adrenergic system was “significantly more important”.
